Holding throughout (format): physicochemical
Data set [1] in a line: Solubility of mono-hydrochloride in solvents. As to conditions: in MeOH, DMF, DMSO and water.
Data set [2] in a line: Dry grinding and wet granulation, physical stability in the milling process. As for the experimental part:
Dry grinding and wet granulation were carried out to test physical stability of (1S,2S)-2-fluoro-N-(6-(4-methylpyridin-3-yl)benzo[d]thiazol-2-yl)cyclopropane-1-carboxamide mono-hydrochloride in the milling process.
For dry grinding experiment, about 50 mg of (1S,2S)-2-fluoro-N-(6-(4-methylpyridin-3-yl)benzo[d]thiazol-2-yl)cyclopropane-1-carboxamide mono-hydrochloride was added into mortar and grinded by pestle for about 5 mins. Residual solids were then characterized by XRPD.
For wet granulation experiment, about 50 mg of (1S,2S)-2-fluoro-N-(6-(4-methylpyridin-3-yl)benzo[d]thiazol-2-yl)cyclopropane-1-carboxamide mono-hydrochloride was added into mortar and then several drops of solvent EtOH were added until the solids were fully wetted. Wet solids were grinded by pestle for about 5 mins manually and residual solids were then characterized by XRPD.

Data set [3] can be described thus: Polymorph screening study of mono-hydrochloride (slurry, heating-cooling, slow evaporation, anti-solvent). As to conditions: slow evaporation and anti-solvent methods, starting from Pattern I. Here is the method:
About 50 mg of (1S,2S)-2-fluoro-N-(6-(4-methylpyridin-3-yl)benzo[d]thiazol-2-yl)cyclopropane-1-carboxamide mono-hydrochloride was suspended into 1.0 mL selected pure or binary solvents in 2.0 mL glass vials. The suspensions were placed on the thermo-mixer with the speed of 700 r/m in at 25° C. and 50° C. After 4 days, slurries and suspensions were centrifuged (8,000 r/m in, 5 mins) and residual solids were dried in the vacuum oven at 35° C. for 4 hrs.
About 50 mg of (1S,2S)-2-fluoro-N-(6-(4-methylpyridin-3-yl)benzo[d]thiazol-2-yl)cyclopropane-1-carboxamide mono-hydrochloride was suspended into 1.0 mL selected pure or binary solvents in 2.0 mL glass vials at 50° C. stirring with the speed of 500 r/min. Then the suspensions were filtered through 0.45 μm filters into clean 2.0 mL glass vials and placed on the hot-plate stirring with 500 r/m in at 50° C. After stirring at 50° C. for 1.5 hrs, the system was cooled to 25° C. After stirring at 25° C. for 16 hrs, some solids came out from MeOH, EtOH/H2O (5/1, v/v) and acetone/H2O (5/1, v/v) systems, while very few solids came out from EtOH system. Then MeOH, EtOH/H2O (5/1, v/v) and acetone/H2O (5/1, v/v) systems were centrifuged at 10000 r/min for 5 mins and residual solids were dried in the vacuum oven at 35° C. for 3 hrs. Obtained dry solids were then characterized by XRPD. […]

Data set [4] is described as follows: Solubility tests of mono- and di-hydrochloride in bio-relevant media by HPLC. The note with it: for solubility at 17 h: 37 °C, thermodynamic from solid; for pH: after shaking 17 hrs at 37° C. Here is the method: Solubilities of mono-hydrochloride and di-hydrochloride salt forms in biorelevant media were tested at 37° C. Details of procedures were listed as below: About 15 mg obtained salts were weighed in 2 mL vials, respectively. Then 1.0 mL bio-relevant media (SGF, FaSSIF and FeSSIF) were added into the vials. All the vials were placed on the thermo-mixer and kept at 37° C. (700 r/min). After shaking at 37° C. for 17 hrs, clear solutions obtained by centrifugation were analyzed by HPLC after being diluted by ACN/water (1v/1v) for 10-50 times. And pH value of all systems were measured.

For orientation: solubility means the dissolved amount per volume that the medium holds. Lower therefore signals little dissolved substance.

For the molecule `Cc1ccncc1-c1ccc2nc(NC(=O)[C@@H]3C[C@@H]3F)sc2c1.Cl` [Mono-hydrochloride, (1S,2S)-2-fluoro-N-(6-(4-methylpyridin-3-yl)benzo[d]thiazol-2-yl)cyclopropane-1-carboxamide mono-hydrochloride], in data set [1], the solubility result is recorded as “relatively high solubility”. For the same molecule, the “crystallinity of residual solids (XRPD)” value in data set [2] (after dry grinding) is “decreased”. Also, the “crystalline form (XRPD)” value in data set [2] (after dry grinding or wet granulation process) is “not changed”. Besides, the “XRPD pattern in polymorph screening” value in data set [3] is reported as “No new XRPD pattern was found”. Also, the solubility at 17 h in data set [4] (pH 1.88, simulated gastric fluid) was more than 13900 µg/mL; in data set [4] (pH 5.07, fessif), 130 µg/mL; in data set [4] (pH 6.62, fassif), 7840 µg/mL. In addition, the values for the pH in data set [4] (FaSSIF (pH = 6.62)), in data set [4] (FeSSIF (pH = 5.07)) and in data set [4] (SGF (pH = 1.88)) were 2.01, 3.83 and 1.89, respectively.
